The values that follow come from patent US20250151721A1, “MOSQUITO ATTRACTANT COMPOSITIONS THAT MIMIC HUMAN ODOR IN THE MOSQUITO BRAIN” (TRUSTEES OF PRINCETON UNIVERSITY, priority 2021, published 2025).

The test system of test [1] is broadly tuned (B) glomerulus of the antennal lobe. Put plainly: Two-photon calcium imaging of odour-evoked activity in the broadly tuned (B) glomerulus. The format is in vivo, Aedes aegypti. The source says: (§1) We designed a two-photon microscope that incorporates both resonant scanning^69 and remote focusing^70,71 to achieve rapid, volumetric, in vivo neural imaging. Remote focusing allows rapid switching of the imaging plane by moving a small, lightweight mirror located upstream in the imaging path. […] In diagnostic tests, transition times for switching between two planes were less than 6 ms.
(§2) We custom-designed a mosquito holder with a 3D-printed plastic frame and thin stainless-steel plate (FIG. 2C, thickness 0.001 inch). A tiny mosquito-head-sized hole was photo-chemically etched on the plate (ETCHIT Company). To prepare for imaging, we anaesthetized a female on ice for ˜1 min, pushed the anterodorsal side of her head into the hole, and fixed it with UV glue (RapidFix 6121830ES). The antennae, maxillary palps, and proboscis remained below the metal plate and contacted neither the plate nor the glue. We added room-temperature saline (103 mM NaCl, 3 mM KCl, 5 mM TES, 26 mM NaHCO3, 1 mM NaH2PO4, 1.5 mM CaCl2), 4 mM MgCl2, 10 mM Trehalose, 10 mM Glucose; pH 7.1) to the holder and used sharp forceps to remove a section of the head capsule (including both cuticle and the edge of the eyes) from the part of the head protruding through the metal plate. During imaging, we continuously perfused saline bubbled with carbogen (5% CO2, 95% O2) through the holder and across the open head capsule at 125 ml/hour.
We used the ScanImage^72 package in Matlab to control the microscope and acquire images. For each individual, we chose either the right or left antennal lobe (AL) and recorded movies of odour-evoked activity (starting 7-30 sec before and continuing 20-60 sec after synthetic-odorant puffs; ˜30 sec before, ˜140 sec after puffs of complex extract). The movies covered the entire AL in Z-stacks that were 4 μm apart at 128×128 pixel resolution (22 stacks total, green channel only for the orco-T2A-QF2-QUAS-GCaMP 6f strain; 28 stacks, green and red channels for the brp>jGCaMP7s strain). […] Laser power as measured at the sample plane was 10 mW. […]

Test [2] deals with human-sensitive (H) glomerulus of the antennal lobe. As to the kind of experiment: Two-photon calcium imaging of odour-evoked activity in the human-sensitive (H) glomerulus. The note with it: for response of H glomerulus: panel of 50 single odorants at approximately the same vapour-phase concentration (that of sulcatone in 1× human odour). Type of test: in vivo, Aedes aegypti.
Text: as §1, §2
(§3) We used the ScanImage^72 package in Matlab to control the microscope and acquire images. For each individual, we chose either the right or left antennal lobe (AL) and recorded movies of odour-evoked activity (starting 7-30 sec before and continuing 20-60 sec after synthetic-odorant puffs; ˜30 sec before, ˜140 sec after puffs of complex extract). The movies covered the entire AL in Z-stacks that were 4 μm apart at 128×128 pixel resolution (22 stacks total, green channel only for the orco-T2A-QF2-QUAS-GCaMP 6f strain; 28 stacks, green and red channels for the brp>jGCaMP7s strain). The resulting voxel size was approximately 0.9×0.8×4 μm^3, and the volumetric imaging rate was 3.76 Hz for the orco-T2A-QF2-QUAS-GCaMP 6f strain and 2.95 Hz for the brp>jGCaMP7s strain. We increased the laser power exponentially with depth (ranging from 7.5 to 10 mW) to account for light decay and scattering in deeper tissues. Laser power as measured at the sample plane was 10 mW. After recording odour-evoked activity, we acquired 30-40 high-resolution structural volumes at high laser power to aid registration and downstream analysis. For this, we imaged the AL in 120-180 z-stacks, 1 μm apart, at 256×256 pixel resolution.
The three target glomeruli could be reliably identified across brains based on position and responses to key reference odorants. Human-sensitive glomerulus H was located in the anterior AL, adjacent to a landmark non-Orco glomerulus in our two-photon images (unlabeled area surrounded by Orco+ glomeruli; FIGS. 8A-B), and responded to 10^−2 heptanal. Animal-sensitive glomerulus A was located in the dorsal AL and responded to 10^−2 phenol. Broadly tuned glomerulus B was located in the posterior-medial AL and responded to 10^−2 benzaldehyde. Glomeruli H, A, and B tentatively correspond to V3, MD2, and PD1, respectively, in a previously published atlas^35, but we cannot be sure without molecular markers.
We used area under df/f curves as a metric for neural activity. For single-odorant stimuli, which evoked single df/f peaks, we defined the peak boundaries by first locating the max (for activation) or min (for inhibition) points in the df/f curve and then extending from the max/min point until df/f dropped to background levels. For natural odour extracts, which sometimes evoked multiple peaks, we integrated df/f values from desorption of the focusing trap to the end of neural recording (0 to 140 sec). […]

The subject of test [3] is animal-sensitive (A) glomerulus of the antennal lobe. As to the kind of experiment: Two-photon calcium imaging of odour-evoked activity in the animal-sensitive (A) glomerulus. Type of test: in vivo, Aedes aegypti. The note with it: for activation of A glomerulus: panel of 50 single odorants at approximately the same vapour-phase concentration.
Text: We designed a two-photon microscope that incorporates both resonant scanning^69 and remote focusing^70,71 to achieve rapid, volumetric, in vivo neural imaging. Remote focusing allows rapid switching of the imaging plane by moving a small, lightweight mirror located upstream in the imaging path.
as §2, §3
We used area under df/f curves as a metric for neural activity. For single-odorant stimuli, which evoked single df/f peaks, we defined the peak boundaries by first locating the max (for activation) or min (for inhibition) points in the df/f curve and then extending from the max/min point until df/f dropped to background levels. For natural odour extracts, which sometimes evoked multiple peaks, we integrated df/f values from desorption of the focusing trap to the end of neural recording (0 to 140 sec).

The subject of test [4] is Orco+ glomeruli of the antennal lobe. Put plainly: Two-photon calcium imaging of odour-evoked activity across Orco+ glomeruli. Type of test: in vivo, Aedes aegypti.
Text: as §1
We custom-designed a mosquito holder with a 3D-printed plastic frame and thin stainless-steel plate (FIG. 2C, thickness 0.001 inch). A tiny mosquito-head-sized hole was photo-chemically etched on the plate (ETCHIT Company). To prepare for imaging, we anaesthetized a female on ice for ˜1 min, pushed the anterodorsal side of her head into the hole, and fixed it with UV glue (RapidFix 6121830ES). The antennae, maxillary palps, and proboscis remained below the metal plate and contacted neither the plate nor the glue. […]
We used the ScanImage^72 package in Matlab to control the microscope and acquire images. For each individual, we chose either the right or left antennal lobe (AL) and recorded movies of odour-evoked activity (starting 7-30 sec before and continuing 20-60 sec after synthetic-odorant puffs; ˜30 sec before, ˜140 sec after puffs of complex extract). […] Laser power as measured at the sample plane was 10 mW. […]

Test [5] deals with female Aedes aegypti mosquitoes. As to the kind of experiment: Two-port olfactometer host-preference assay. Type of test: in vivo. The note with it: in the absence of human or animal odour. On the procedure: We tested the host preference of mated, non-blood-fed, 7-14 day old females that had been housed overnight with access to water only (no sucrose). We used a two-port olfactometer for choice and no-choice tests involving live hosts (FIGS. 1A and C) or sleeves/hair (FIGS. 1B and D) as previously described3. We first acclimated 75-100 female mosquitoes in the olfactometer for 5 min, then opened a sliding door and activated a fan to pull air through the two host chambers and expose mosquitoes to host odour. Mosquitoes were able to fly upwind, sample the host-odour streams, and choose to enter either host port. After 6 min, we counted the number of mosquitoes trapped in each host port. For two-choice trials with live hosts, one chamber contained a human hand and arm up to the elbow (belonging to one of six 22-43 year old individuals: 3 female, 3 male; 3 Caucasian, 2 East Asian, 1 South Asian). The human exhaled gently near the opening of the chamber once every 30 sec to provide a source of breath. The other chamber contained a guinea pig (Cavia porcellus; one of two 4-5 year old pigmented females), rat (Rattus norvegicus domesticus; one of two 2-6 month old Sprague-Dawley males), or button quail (Coturnix coturnix; one 2-3 year old female). […]

[6] abbreviates: concentrations calibrated to about ⅕th of activity evoked by 1× human odour, paraffin oil.
Where [7] appears, read: synthetic odorants singly or as combo, vapour-phase concentrations characteristic of 1× human odour, 3-sec puffs.

Molecules are shown by their SMILES. Where only a bound is given, the exact number is not on record here.

With `CCCCCCO` [1-hexanol], the “activity evoked in B glomerulus” value in test [1] (setting [6]) is recorded as “evoked activity in their cognate glomeruli”.

As for `CCCCCCCCCC=O` [Decanal], the “activity evoked in H glomerulus” value is “evoked activity in their cognate glomeruli” in test [2] (setting [6]); “strong and prolonged activity” in test [2] (setting [7]).

For `CC(=O)C(C)O` (stereo not shown) [acetoin], the “activation of B glomerulus” value in test [1] (synthetic odorants singly or as combo, vapour-phase concentrations characteristic of 1× human odour) is given as “strongly activated”. The “activation of A glomerulus” value in test [3] is listed as “strongly activated”. The “activity evoked in A glomerulus” value in test [3] (physiological concentrations (as in 1× human odour)) is given as “too low to evoke consistent activity”.

Take `O=Cc1ccccc1` [benzaldehyde]: the “response of B glomerulus to reference odorant” value in test [1] (10^−2 dilution) is on record as “responded”.

In the case of `CS(C)(=O)=O` [dimethyl sulfone], the “activation of A glomerulus” value in test [3] is “strongly activated”.

As for `CCCCCCC=O` [heptanal], in test [2] (10^−2 dilution), the “response of H glomerulus to reference odorant” value is reported as “responded”.

As to `CCCCCC=O` [hexanal], the “response of H glomerulus” value in test [2] is reported as “no response”.

Consider `Cc1ccc(O)cc1` [p-cresol], for which the “activation of A glomerulus” value in test [3] is given as “strongly activated”.

Turning to `Oc1ccccc1` [phenol], the “response of A glomerulus to reference odorant” value in test [3] (10^−2 dilution) is reported as “responded”. The “activation of A glomerulus” value in test [3] was “strongly activated”.

Take `CC(=O)CCC=C(C)C` [sulcatone]: the figures for the “glomerular activity in response to the compound” value in test [4] (at its concentration in 1× human odour) and in test [4] (higher doses (data not shown)) were “did not see consistent activity” and “several glomeruli responded”, respectively.

As to `O=C=O` [synthetic CO2, CO2], in test [5], the “response of female mosquitoes in no-choice olfactometer trials” value is reported as “minimal”.

`CCCCCCCCCCC=O` [undecanal]: in test [2], the “response of H glomerulus” value is given as “strong activity”. Also, in test [2] (single odorant at equal vapour-phase concentration), the “duration of H glomerulus activity beyond the 3-second puff” value was at least 40 s. Further, in test [2] (setting [7]), the “activity evoked in H glomerulus” value was “strong and prolonged activity”.
